From patent publication US20250114345A1, “COMPOUNDS AND COMPOSITIONS AS CBP/P300 DEGRADERS AND USES THEREOF” (Oncopia Therapeutics, Inc. d/b/a/ SK Life Science Labs, priority 2023, published 2025)

How the values were obtained:
CBP = target: T1, CBP (Homo sapiens, UniProt Q92793); assay: CBP degradation, HiBit technology in A549 CBP HiBit cells (24 h); format: cell-based; settings: 24 hrs post treatment
T1 construct: host or cells: A549 CBP HiBit cells
In short: (§1)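 Degradation potency and Dmax came from luminescence after 10 min room-temperature lysis with HiBit detection buffer. Beforehand, HiBit-tagged A549 lines received serial compound dilutions (10 mM DMSO stocks) at 37 °C, 5% CO2. CBP cells were read at 24 h, p300 cells at 2 h.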

p300 = target: T2, p300 (Homo sapiens, UniProt Q09472); assay: P300 degradation, HiBit technology in A549 P300 HiBit cells (2 h); format: cell-based; settings: 2 hrs post treatment; for Dmax: A549, A549 P300 HiBit cells; for DC50: A549 P300 HiBit cells
T2 construct: host or cells: A549 P300 HiBit cells
T2 sequence (Q09472 whole entry): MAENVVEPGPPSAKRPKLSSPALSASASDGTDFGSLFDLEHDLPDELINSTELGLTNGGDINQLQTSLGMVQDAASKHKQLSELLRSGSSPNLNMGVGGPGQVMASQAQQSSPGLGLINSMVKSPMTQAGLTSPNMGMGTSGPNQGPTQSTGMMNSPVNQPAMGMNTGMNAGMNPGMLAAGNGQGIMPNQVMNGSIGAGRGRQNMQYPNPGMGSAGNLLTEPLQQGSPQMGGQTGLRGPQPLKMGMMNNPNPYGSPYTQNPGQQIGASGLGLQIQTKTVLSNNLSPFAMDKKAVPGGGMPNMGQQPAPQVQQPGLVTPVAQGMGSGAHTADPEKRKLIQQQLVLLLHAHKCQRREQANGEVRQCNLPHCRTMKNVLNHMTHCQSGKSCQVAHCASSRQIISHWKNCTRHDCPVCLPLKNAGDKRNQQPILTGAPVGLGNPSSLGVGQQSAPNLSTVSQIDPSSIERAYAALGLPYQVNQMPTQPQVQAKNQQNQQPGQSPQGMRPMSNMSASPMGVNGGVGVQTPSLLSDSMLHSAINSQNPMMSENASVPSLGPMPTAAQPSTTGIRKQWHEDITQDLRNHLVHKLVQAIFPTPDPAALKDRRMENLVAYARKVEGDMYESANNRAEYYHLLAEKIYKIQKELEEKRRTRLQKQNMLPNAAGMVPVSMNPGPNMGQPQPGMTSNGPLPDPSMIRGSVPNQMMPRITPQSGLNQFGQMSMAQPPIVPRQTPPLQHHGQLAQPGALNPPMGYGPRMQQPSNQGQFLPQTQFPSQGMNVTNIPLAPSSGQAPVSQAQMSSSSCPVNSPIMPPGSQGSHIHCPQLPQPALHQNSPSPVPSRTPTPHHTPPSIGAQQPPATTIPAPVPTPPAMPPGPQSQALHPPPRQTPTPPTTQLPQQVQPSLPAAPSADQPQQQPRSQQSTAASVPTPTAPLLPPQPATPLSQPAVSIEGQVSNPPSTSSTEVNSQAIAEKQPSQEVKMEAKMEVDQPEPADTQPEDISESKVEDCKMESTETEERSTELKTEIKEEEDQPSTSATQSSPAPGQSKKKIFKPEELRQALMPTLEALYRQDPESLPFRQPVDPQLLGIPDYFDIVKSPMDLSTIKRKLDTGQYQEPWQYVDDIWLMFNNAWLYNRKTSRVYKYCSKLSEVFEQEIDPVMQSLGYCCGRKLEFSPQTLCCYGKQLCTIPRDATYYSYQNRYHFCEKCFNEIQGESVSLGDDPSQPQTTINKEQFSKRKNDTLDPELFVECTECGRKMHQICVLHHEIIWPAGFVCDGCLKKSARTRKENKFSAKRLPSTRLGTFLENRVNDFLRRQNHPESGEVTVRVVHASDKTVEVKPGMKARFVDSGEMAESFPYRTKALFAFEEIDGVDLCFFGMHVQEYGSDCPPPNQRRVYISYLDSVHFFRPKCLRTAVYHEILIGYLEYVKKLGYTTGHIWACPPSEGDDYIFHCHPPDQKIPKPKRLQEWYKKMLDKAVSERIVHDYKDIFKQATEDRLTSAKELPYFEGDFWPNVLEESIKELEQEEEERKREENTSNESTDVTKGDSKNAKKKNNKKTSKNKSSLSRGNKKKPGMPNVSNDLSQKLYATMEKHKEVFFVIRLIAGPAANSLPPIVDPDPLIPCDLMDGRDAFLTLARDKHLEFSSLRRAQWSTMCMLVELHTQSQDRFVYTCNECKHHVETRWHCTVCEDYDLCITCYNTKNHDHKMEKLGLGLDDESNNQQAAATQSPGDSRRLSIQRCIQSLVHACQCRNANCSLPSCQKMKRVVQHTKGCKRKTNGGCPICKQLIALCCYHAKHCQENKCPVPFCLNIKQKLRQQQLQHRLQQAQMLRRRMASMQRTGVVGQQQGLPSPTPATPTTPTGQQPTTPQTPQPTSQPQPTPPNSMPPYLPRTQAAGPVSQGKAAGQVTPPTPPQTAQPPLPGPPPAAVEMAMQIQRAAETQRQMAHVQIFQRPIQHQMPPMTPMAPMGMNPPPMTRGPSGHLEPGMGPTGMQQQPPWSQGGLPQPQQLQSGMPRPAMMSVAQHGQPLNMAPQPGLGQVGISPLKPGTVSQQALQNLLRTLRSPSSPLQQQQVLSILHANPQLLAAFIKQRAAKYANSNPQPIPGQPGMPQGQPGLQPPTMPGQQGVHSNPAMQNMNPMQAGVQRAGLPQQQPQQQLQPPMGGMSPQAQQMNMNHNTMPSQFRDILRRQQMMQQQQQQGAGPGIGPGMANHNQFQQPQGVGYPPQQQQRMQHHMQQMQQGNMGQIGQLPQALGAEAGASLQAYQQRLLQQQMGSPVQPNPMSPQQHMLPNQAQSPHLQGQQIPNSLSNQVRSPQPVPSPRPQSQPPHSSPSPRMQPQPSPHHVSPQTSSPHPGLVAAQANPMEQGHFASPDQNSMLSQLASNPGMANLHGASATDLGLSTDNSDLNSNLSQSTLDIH
In short: as §1

T1 sequence (Q92793 whole entry): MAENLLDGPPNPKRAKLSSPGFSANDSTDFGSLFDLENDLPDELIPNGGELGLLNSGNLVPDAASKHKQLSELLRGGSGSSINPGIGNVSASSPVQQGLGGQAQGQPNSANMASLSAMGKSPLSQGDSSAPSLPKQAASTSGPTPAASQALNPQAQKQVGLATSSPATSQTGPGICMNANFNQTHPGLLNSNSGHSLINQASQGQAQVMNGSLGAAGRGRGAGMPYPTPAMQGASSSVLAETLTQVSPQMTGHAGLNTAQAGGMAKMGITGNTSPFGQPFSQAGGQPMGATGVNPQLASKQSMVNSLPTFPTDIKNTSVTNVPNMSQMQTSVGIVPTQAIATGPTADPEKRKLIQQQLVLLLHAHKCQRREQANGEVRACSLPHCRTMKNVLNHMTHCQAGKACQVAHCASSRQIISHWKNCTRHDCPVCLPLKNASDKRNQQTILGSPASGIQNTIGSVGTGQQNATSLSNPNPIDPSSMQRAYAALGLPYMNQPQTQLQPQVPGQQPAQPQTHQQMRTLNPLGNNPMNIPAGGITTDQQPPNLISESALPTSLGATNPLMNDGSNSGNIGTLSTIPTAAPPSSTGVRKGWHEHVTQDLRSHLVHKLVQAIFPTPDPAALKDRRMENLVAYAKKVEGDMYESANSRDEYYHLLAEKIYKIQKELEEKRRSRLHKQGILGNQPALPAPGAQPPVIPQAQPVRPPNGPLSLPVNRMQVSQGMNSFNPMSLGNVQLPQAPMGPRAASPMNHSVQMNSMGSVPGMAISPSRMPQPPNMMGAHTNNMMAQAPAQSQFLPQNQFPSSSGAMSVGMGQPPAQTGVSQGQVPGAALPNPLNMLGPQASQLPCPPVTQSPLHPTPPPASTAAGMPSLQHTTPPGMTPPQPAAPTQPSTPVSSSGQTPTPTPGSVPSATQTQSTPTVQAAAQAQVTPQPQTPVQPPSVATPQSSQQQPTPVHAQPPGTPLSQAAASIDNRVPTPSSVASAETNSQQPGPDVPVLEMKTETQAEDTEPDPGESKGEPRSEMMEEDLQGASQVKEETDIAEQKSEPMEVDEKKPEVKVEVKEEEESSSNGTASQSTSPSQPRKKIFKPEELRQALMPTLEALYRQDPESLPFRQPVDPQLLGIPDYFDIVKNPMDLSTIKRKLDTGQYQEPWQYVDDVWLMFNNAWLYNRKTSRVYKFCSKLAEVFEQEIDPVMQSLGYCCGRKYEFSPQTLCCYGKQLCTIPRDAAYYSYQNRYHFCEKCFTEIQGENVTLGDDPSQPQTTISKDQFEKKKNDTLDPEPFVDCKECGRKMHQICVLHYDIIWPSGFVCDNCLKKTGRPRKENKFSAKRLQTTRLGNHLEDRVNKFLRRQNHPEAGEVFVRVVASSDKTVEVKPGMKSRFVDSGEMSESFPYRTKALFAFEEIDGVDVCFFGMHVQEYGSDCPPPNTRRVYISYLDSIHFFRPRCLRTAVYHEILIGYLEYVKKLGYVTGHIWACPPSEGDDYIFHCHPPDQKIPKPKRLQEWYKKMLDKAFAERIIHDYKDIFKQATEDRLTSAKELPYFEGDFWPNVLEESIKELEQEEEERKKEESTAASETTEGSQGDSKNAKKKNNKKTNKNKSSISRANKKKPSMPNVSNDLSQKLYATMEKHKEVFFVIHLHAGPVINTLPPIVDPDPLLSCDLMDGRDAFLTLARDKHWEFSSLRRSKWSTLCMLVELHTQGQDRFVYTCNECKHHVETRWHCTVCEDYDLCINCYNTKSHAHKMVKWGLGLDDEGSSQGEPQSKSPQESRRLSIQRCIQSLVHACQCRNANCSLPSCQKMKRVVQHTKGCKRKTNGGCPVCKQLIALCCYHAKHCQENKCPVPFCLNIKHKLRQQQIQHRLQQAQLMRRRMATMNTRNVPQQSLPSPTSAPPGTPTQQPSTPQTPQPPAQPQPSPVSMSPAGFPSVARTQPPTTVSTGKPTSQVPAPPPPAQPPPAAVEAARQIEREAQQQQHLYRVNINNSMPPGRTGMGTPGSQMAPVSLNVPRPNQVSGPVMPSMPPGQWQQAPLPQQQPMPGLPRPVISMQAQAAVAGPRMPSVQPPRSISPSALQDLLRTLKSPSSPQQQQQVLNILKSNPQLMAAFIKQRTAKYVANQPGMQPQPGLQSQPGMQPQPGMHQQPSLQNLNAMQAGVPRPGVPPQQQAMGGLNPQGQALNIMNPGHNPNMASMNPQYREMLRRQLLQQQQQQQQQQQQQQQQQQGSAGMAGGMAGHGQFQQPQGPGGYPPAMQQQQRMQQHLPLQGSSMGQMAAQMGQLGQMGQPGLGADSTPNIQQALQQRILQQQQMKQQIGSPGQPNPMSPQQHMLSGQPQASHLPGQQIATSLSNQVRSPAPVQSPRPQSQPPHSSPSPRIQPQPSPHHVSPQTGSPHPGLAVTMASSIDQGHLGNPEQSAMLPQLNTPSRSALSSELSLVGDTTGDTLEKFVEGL

Row | Compound | DC50 (CBP) | Dmax (CBP) | Dmax (p300) | DC50 (p300)
1 | Cc1cc(-c2ncc3c(n2)OCCN3c2cc(C)c3c(c2)n(C)c(=O)n3C)cnc1C(=O)NCC#Cc1ccc2occ(C3CCC(=O)NC3=O)c2c1 (stereo not drawn) [Example A88, N-(3-(3-(2,6-dioxo-piperidin-3-yl)benzofuran-5-yl)prop-2-yn-1-yl)-3-methyl-5-(5-(1,3,7-trimethyl-2-oxo-2,3-dihydro-1H-benzo [d]imidazol-5-yl)-6,7-dihydro-5H-pyrimido [4,5-b][1,4]oxazin-2-yl)picolinamide] | > 1000 nM | < 20% | > 80% | > 1000 nM
2 | Cc1cc2c(-c3cn(C)c(=O)c4cc(-c5ccc(C(=O)NCC#Cc6cc7c(C8CCC(=O)NC8=O)cccc7o6)nc5)ncc34)cc(C3CCOCC3)nc2n(C)c1=O (stereo not drawn) [Example B160, 5-(8-(6,8-dimethyl-7-oxo-2-(tetrahydro-2H-pyran-4-yl)-7,8-dihydro-1,8-naphthyridin-4-yl)-6-methyl-5-oxo-5,6-dihydro-2,6-naphthyridin-3-yl)-N-(3-(4-(2,6-dioxopiperidin-3-yl)benzofuran-2-yl)prop-2-yn-1-yl)picolinamide] | > 1000 nM | < 20% | > 80% | 1 to 9.9 nM
3 | CC(C)c1cc(-c2cccc3cc(-c4ccc(C(=O)NCC#Cc5cc(NC6CCC(=O)NC6=O)nn5C)nc4)ncc23)cc2c1n(C)c(=O)n2C (stereo not drawn) [Example A24, N-(3-(3-((2,6-Dioxopiperidin-3-yl)amino)-1-methyl-1H-pyrazol-5-yl)prop-2-yn-1-yl)-5-(8-(7-isopropyl-1,3-dimethyl-2-oxo-2,3-dihydro-1H-benzo[d]imidazol-5-yl)isoquinolin-3-yl)picolinamide] | > 1000 nM | < 20% | > 80% | < 1 nM
4 | CN1Cc2c(-c3cccc4cc(-c5ccc(C(=O)NCC#Cc6ccc7cnn(C8CCC(=O)NC8=O)c7c6)nc5)ncc34)cc(C(C)(F)F)cc2N(C)C1=O (stereo not drawn) [Example B9, 5-(8-(7-(1,1-Difluoroethyl)-1,3-dimethyl-2-oxo-1,2,3,4-tetrahydroquinazolin-5-yl)isoquinolin-3-yl)-N-(3-(1-(2,6-dioxopiperidin-3-yl)-1H-indazol-6-yl)prop-2-yn-1-yl)picolinamide] | 10 to 99 nM | 40 to 59% | > 80% | 1 to 9.9 nM
5 | CCc1cc(-c2cccc3cc(-c4ccc(C(=O)NCC#Cc5ccc6cnn(C7CCC(=O)NC7=O)c6c5)nc4)ncc23)c2cc(C)c(=O)n(C)c2c1 (stereo not drawn) [Example B5, N-(3-(1-(2,6-Dioxopiperidin-3-yl)-1H-indazol-6-yl)prop-2-yn-1-yl)-5-(8-(7-ethyl-1,3-dimethyl-2-oxo-1,2-dihydroquinolin-5-yl)isoquinolin-3-yl)picolinamide] | > 1000 nM | < 20% | > 80% | 1 to 9.9 nM
6 | Cn1c(=O)n(C)c2c(N3CC(C)(O)C3)nc(-c3cccc4cc(-c5ccc(C(=O)NCC#Cc6ccc7occ(C8CCC(=O)NC8=O)c7c6)nc5)ncc34)cc21 (stereo not drawn) [Example A145, N-(3-(3-(2,6-dioxo-piperidin-3-yl)benzofuran-5-yl)prop-2-yn-1-yl)-5-(8-(4-(3-hydroxy-3-methylazetidin-1-yl)-1,3-dimethyl-2-oxo-2,3-dihydro-1H-imidazo[4,5-c]pyridin-6-yl)isoquinolin-3-yl)picolinamide] | > 1000 nM | < 20% | > 80% | < 1 nM
7 | CC(C)c1cc(-c2cccc3cc(-c4ccc(C(=O)NCC#Cc5ccc6nnn(C7CCC(=O)NC7=O)c6c5)nc4)ncc23)cc2c1n(C)c(=O)n2C (stereo not drawn) [Example A3, N-(3-(1-(2,6-Dioxopiperidin-3-yl)-1H-benzo[d][1,2,3]triazol-6-yl)prop-2-yn-1-yl)-5-(8-(7-isopropyl-1,3-dimethyl-2-oxo-2,3-dihydro-1H-benzo[d]imidazol-5-yl)isoquinolin-3-yl)picolinamide] | > 1000 nM | < 20% | > 80% | < 1 nM
8 | Cn1c(=O)n(C)c2c(N3CC4CCC(C3)O4)nc(-c3cccc4cc(-c5ccc(C(=O)NCC#Cc6ccc7occ(C8CCC(=O)NC8=O)c7c6)nc5)ncc34)cc21 (stereo not drawn) [Example A86, 5-(8-(4-(8-oxa-3-azabicyclo[3.2.1]octan-3-yl)-1,3-dimethyl-2-oxo-2,3-dihydro-1H-imidazo[4,5-c]pyridin-6-yl)isoquinolin-3-yl)-N-(3-(3-(2,6-dioxo-piperidin-3-yl)benzofuran-5-yl)prop-2-yn-1-yl)picolinamide] | > 1000 nM | < 20% | > 80% | 1 to 9.9 nM
9 | Cc1cc2c(N3CCCc4nc(-c5ccc(C(=O)NCC#Cc6ccc7occ([C@H]8CCC(=O)NC8=O)c7c6)nc5)ncc43)nc(N3CCOCC3)cc2n(C)c1=O [Example B72, (R)-5-(5-(1,3-dimethyl-7-morpholino-2-oxo-1,2-dihydro-1,6-naphthyridin-5-yl)-5,6,7,8-tetrahydropyrido[3,2-d]pyrimidin-2-yl)-N-(3-(3-(2,6-dioxopiperidin-3-yl)benzofuran-5-yl)prop-2-yn-1-yl)picolinamide] | > 1000 nM | < 20% | 60 to 79% | 1 to 9.9 nM
10 | COc1nc(-c2cnc(C(=O)NCC#Cc3cc4c(C5CCC(=O)NC5=O)cccc4o3)c(C)c2)ncc1Nc1cc(C2CCOCC2)c2c(c1)n(C)c(=O)n2C (stereo not drawn) [Example A207, 5-(5-((1,3-dimethyl-2-oxo-7-(tetrahydro-2H-pyran-4-yl)-2,3-dihydro-1H-benzo[d]imidazol-5-yl)amino)-4-methoxypyrimidin-2-yl)-N-(3-(4-(2,6-dioxopiperidin-3-yl)benzofuran-2-yl)prop-2-yn-1-yl)-3-methylpicolinamide] | 100 to 999 nM | < 20% | > 80% | < 1 nM
11 | CC(C)c1cc(-c2cn(C)c(=O)c3cc(-c4ccc(C(=O)NCC#Cc5ccc6occ(C7CCC(=O)NC7=O)c6c5)nc4)ncc23)cc2c1n(C)c(=O)n2C (stereo not drawn) [Example A97, N-(3-(3-(2,6-dioxo-piperidin-3-yl)benzofuran-5-yl)prop-2-yn-1-yl)-5-(8-(7-isopropyl-1,3-dimethyl-2-oxo-2,3-dihydro-1H-benzo [d]imidazol-5-yl)-6-methyl-5-oxo-5,6-dihydro-2,6-naphthyridin-3-yl) picolinamide] | 10 to 99 nM | 40 to 59% | > 80% | 1 to 9.9 nM

The next lines start with the values.

Row | DC50 (CBP) | Dmax (CBP) | Dmax (p300) | DC50 (p300) | Compound
12 | > 1000 nM | < 20% | 60 to 79% | 10 to 99 nM | CC(C)c1cc(-c2cccc3cc(-c4ccc(C(=O)NCC#Cc5ccc6ccnc(C7CCC(=O)NC7=O)c6c5)nc4)ncc23)cc2c1n(C)c(=O)n2C (stereo not drawn) [Example A10, N-(3-(1-(2,6-Dioxopiperidin-3-yl)isoquinolin-7-yl)prop-2-yn-1-yl)-5-(8-(7-isopropyl-1,3-dimethyl-2-oxo-2,3-dihydro-1H-benzo[d]imidazol-5-yl)isoquinolin-3-yl)picolinamide]
13 | > 1000 nM | < 20% | > 80% | 1 to 9.9 nM | Cc1cc(-c2ncc3c(n2)OCCN3c2ccc3c(c2)n(C)c(=O)n3C)cnc1C(=O)NCC#Cc1cc2c([C@H]3CCC(=O)NC3=O)cccc2o1 [Example A174, (R)-5-(5-(1,3-dimethyl-2-oxo-2,3-dihydro-1H-benzo [d]imidazol-5-yl)-6,7-dihydro-5H-pyrimido [4,5-b][1,4]oxazin-2-yl)-N-(3-(4-(2,6-dioxopiperidin-3-yl)benzofuran-2-yl)prop-2-yn-1-yl)-3-methylpicolinamide]
14 | 100 to 999 nM | 40 to 59% | 60 to 79% | 10 to 99 nM | CCc1cc(-c2cccc3cc(-c4ccc(C(=O)NCC#Cc5cccc(CC6CCC(=O)NC6=O)c5)nc4)ncc23)c2cc(C)c(=O)n(C)c2c1 (stereo not drawn) [Example B4, N-(3-(3-((2,6-Dioxopiperidin-3-yl)methyl)phenyl)prop-2-yn-1-yl)-5-(8-(7-ethyl-1,3-dimethyl-2-oxo-1,2-dihydroquinolin-5-yl)isoquinolin-3-yl)picolinamide]
15 | > 1000 nM | < 20% | > 80% | 1 to 9.9 nM | Cn1c(=O)n(C)c2cc(C3=CC(C)(C)Oc4cc(-c5ccc(C(=O)NCC#Cc6ccc7occ(C8CCC(=O)NC8=O)c7c6)nc5)ncc43)ccc21 (stereo not drawn) [Example A263, 5-(4-(1,3-dimethyl-2-oxo-2,3-dihydro-1H-benzo[d]imidazol-5-yl)-2,2-dimethyl-2H-pyrano[3,2-c]pyridin-7-yl)-N-(3-(3-(2,6-dioxopiperidin-3-yl)benzofuran-5-yl)prop-2-yn-1-yl)picolinamide]
16 | 1 to 9.9 nM | 60 to 79% | > 80% | < 1 nM | Cc1cc2c(N3CCN(C)c4nc(-c5ccc(C(=O)NCC#Cc6cc7c(C8CCC(=O)NC8=O)nccc7o6)nc5)ncc43)cccc2n(C)c1=O (stereo not drawn) [Example B32, 5-(5-(1,3-dimethyl-2-oxo-1,2-dihydroquinolin-5-yl)-8-methyl-5,6,7,8-tetrahydropteridin-2-yl)-N-(3-(4-(2,6-dioxopiperidin-3-yl)furo[3,2-c]pyridin-2-yl)prop-2-yn-1-yl)picolinamide]
17 | > 1000 nM | < 20% | > 80% | 1 to 9.9 nM | Cn1c(=O)n(C)c2cc(-c3cccc4cc(-c5ccc(C(=O)NCC#Cc6ccc7cnn(C8CCC(=O)NC8=O)c7c6)nc5)ncc34)ccc21 (stereo not drawn) [Example A255, 5-(8-(1,3-dimethyl-2-oxo-2,3-dihydro-1H-benzo[d]imidazol-5-yl)isoquinolin-3-yl)-N-(3-(1-(2,6-dioxo-piperidin-3-yl)-1H-indazol-6-yl)prop-2-yn-1-yl)picolinamide]
18 | > 1000 nM | < 20% | > 80% | 1 to 9.9 nM | CNC(=O)c1c[nH]c2ccc(-c3cccc4cc(-c5ccc(C(=O)NCC#Cc6ccc7occ(C8CCC(=O)NC8=O)c7c6)nc5)ncc34)cc12 (stereo not drawn) [Example C1, 5-(3-(6-((3-(3-(2,6-dioxopiperidin-3-yl)benzofuran-5-yl)prop-2-yn-1-yl)carbamoyl)pyridin-3-yl)isoquinolin-8-yl)-N-methyl-1H-indole-3-carboxamide]
